In patent publication US20240101540A1, “TARGETED PROTEIN DEGRADATION OF PARP14 FOR USE IN THERAPY” (Ribon Therapeutics, Inc., priority 2022, published 2024):
Structures can show the parent of a compound that is named as a salt.

The compounds below were run against T1, HiBiT tagged PARP14 (Homo sapiens, UniProt Q460N5) (assay: HiBiT assay for the degradation of PARP14 (HiBiT tagged PARP14 in LgBiT expressing Jurkat cells, 2 or 24 hours)). Conditions: Assay B (Example B): HiBiT tagged PARP14 degradation in LgBiT expressing Jurkat cells, read-out: DC50.
T1 construct: engineered to contain a HiBiT tag on both alleles of the PARP14 gene; endogenous in cells; host or cells: Jurkat cells stably transfected with LgBiT (Promega), PARP14 locus edited by CRISPR/Cas9
Assay type: cell-based
In short: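 Luminescence from HiBiT–LgBiT complementation served as proxy for endogenous PARP14 level in edited LgBiT Jurkat cells (5,000/well). After 2 or 24 h compound exposure at 37 °C, signal read with Live Cell Substrate, expressed as % of 0.1% DMSO control, and fitted (4-parameter, free Hill) for DC50.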

T1 sequence (Q460N5 whole entry): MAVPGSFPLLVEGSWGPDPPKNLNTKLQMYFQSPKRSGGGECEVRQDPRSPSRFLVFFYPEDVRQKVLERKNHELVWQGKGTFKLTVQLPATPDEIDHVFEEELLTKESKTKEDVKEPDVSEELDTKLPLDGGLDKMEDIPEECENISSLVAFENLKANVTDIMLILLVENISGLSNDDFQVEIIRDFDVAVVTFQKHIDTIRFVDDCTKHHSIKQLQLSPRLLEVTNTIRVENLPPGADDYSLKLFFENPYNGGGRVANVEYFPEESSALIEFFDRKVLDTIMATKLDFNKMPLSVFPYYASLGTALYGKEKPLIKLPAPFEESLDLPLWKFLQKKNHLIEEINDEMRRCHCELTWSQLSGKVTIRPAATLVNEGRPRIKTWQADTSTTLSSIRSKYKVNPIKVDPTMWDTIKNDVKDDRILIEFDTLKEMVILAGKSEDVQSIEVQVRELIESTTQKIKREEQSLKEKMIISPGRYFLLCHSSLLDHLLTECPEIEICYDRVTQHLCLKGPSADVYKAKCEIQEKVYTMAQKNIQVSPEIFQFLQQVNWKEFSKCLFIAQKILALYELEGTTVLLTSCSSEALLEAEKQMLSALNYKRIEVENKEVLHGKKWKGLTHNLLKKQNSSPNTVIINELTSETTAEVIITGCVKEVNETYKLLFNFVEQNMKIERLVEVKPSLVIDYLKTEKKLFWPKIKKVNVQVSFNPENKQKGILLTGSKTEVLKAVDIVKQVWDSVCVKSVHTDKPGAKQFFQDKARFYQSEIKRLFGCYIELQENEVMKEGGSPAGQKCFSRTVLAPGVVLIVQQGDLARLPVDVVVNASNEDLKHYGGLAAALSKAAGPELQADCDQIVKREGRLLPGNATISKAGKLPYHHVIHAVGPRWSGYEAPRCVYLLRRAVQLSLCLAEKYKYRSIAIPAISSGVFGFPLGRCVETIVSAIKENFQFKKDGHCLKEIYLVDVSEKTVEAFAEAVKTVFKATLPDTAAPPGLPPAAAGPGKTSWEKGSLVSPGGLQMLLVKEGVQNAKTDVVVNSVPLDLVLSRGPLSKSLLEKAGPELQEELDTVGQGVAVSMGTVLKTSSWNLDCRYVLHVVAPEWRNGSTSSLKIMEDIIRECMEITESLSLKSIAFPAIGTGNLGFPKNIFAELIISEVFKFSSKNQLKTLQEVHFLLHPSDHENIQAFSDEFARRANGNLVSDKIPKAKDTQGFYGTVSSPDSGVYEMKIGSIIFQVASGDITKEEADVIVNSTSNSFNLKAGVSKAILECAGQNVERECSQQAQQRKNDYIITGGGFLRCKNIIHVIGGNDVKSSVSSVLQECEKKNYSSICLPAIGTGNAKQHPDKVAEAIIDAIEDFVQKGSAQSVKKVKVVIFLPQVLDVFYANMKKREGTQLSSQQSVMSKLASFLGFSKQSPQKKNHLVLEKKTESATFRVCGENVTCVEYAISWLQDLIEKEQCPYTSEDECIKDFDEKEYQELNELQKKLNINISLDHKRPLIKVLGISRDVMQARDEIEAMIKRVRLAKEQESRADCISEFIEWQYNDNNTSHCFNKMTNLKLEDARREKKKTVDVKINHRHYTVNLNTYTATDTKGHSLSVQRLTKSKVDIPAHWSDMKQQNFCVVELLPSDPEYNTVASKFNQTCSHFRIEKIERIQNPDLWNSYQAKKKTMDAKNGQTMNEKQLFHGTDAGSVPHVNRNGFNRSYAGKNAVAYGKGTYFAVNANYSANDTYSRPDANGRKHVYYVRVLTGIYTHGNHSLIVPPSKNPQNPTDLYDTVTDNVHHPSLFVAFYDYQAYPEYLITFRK

DC50, < 30 nM:
O=C1CCC(Nc2ccc(N3CCC4(CC3)CC(N3CCC(COc5cc(F)c6c(=O)[nH]c(CSC7CCOCC7)nc6c5)CC3)C4)c(F)c2)C(=O)N1 (stereo not drawn) [Example 143, 3-((3-fluoro-4-(2-(4-(((5-fluoro-4-oxo-2-(((tetrahydro-2H-pyran-4-yl)thio)methyl)-3,4-dihydroquinazolin-7-yl)oxy)methyl)piperidin-1-yl)-7-azaspiro[3.5]nonan-7-yl)phenyl)amino)piperidine-2,6-dione]
O=C1CCN(c2ccc(N3CCC(CN4CCC(COc5cc(F)c6c(=O)[nH]c(COC7CCOCC7)nc6c5)CC4)CC3)c(F)c2)C(=O)N1 [Example 180, 1-(3-fluoro-4-(4-((4-(((5-fluoro-4-oxo-2-(((tetrahydro-2H-pyran-4-yl)oxy)methyl)-3,4-dihydroquinazolin-7-yl)oxy)methyl)piperidin-1-yl)methyl)piperidin-1-yl)phenyl)dihydropyrimidine-2,4(1H,3H)-dione]
O=C1CCC(Nc2ccc(N3CCN(CCN4CCC(COc5cc(F)c6c(=O)[nH]c(CCC7CCOCC7)nc6c5)CC4)CC3)c(F)c2)C(=O)N1 (stereo not drawn) [Example 100, 3-((3-fluoro-4-(4-(2-(4-(((5-fluoro-4-oxo-2-(2-(tetrahydro-2H-pyran-4-yl)ethyl)-3,4-dihydroquinazolin-7-yl)oxy)methyl)piperidin-1-yl)ethyl)piperazin-1-yl)phenyl)amino)piperidine-2,6-dione]
COc1cc(N2CCN(CCN3CCC(COc4cc(F)c5c(=O)[nH]c(CSC6CCOCC6)nc5c4)CC3)CC2)c(F)cc1NC1CCC(=O)NC1=O (stereo not drawn) [Example 140]
O=C1CCC(Nc2ccc(N3CC4(CC(CN5CCC(COc6cc(F)c7c(=O)[nH]c(CSC8CCOCC8)nc7c6)CC5)C4)C3)c(F)c2)C(=O)N1 (stereo not drawn) [Example 227, 3-((3-fluoro-4-(6-((4-(((5-fluoro-4-oxo-2-(((tetrahydro-2H-pyran-4-yl)thio)methyl)-3,4-dihydroquinazolin-7-yl)oxy)methyl)piperidin-1-yl)methyl)-2-azaspiro[3.3]heptan-2-yl)phenyl)amino)piperidine-2,6-dione formate]
Cn1nc(C2CCC(=O)NC2=O)c2ccc(N3CCN(CCN4CCC(COc5cc(F)c6c(=O)[nH]c(CSC7CCOCC7)nc6c5)CC4)CC3)cc21 (stereo not drawn) [Example 102, 3-(6-(4-(2-(4-(((5-Fluoro-4-oxo-2-(((tetrahydro-2H-pyran-4-yl)thio)methyl)-3,4-dihydroquinazolin-7-yl)oxy)methyl)piperidin-1-yl)ethyl)piperazin-1-yl)-1-methyl-1H-indazol-3-yl)piperidine-2,6-dione]
O=C1CCC(N2C(=O)c3ccc(N4CCC(N5CC(N6CCC(COc7cc(F)c8c(=O)[nH]c(CSC9CCOCC9)nc8c7)CC6)C5)CC4)cc3C2=O)C(=O)N1 (stereo not drawn) [Example 191, 2-(2,6-dioxopiperidin-3-yl)-5-(4-(3-(4-(((5-fluoro-4-oxo-2-(((tetrahydro-2H-pyran-4-yl)thio)methyl)-3,4-dihydroquinazolin-7-yl)oxy)methyl)piperidin-1-yl)azetidin-1-yl)piperidin-1-yl)isoindoline-1,3-dione]
O=C1CCN(c2ccc(C3CCN(CCN4CCC(COc5cc(F)c6c(=O)[nH]c(CSC7CCOCC7)nc6c5)CC4)CC3)c(F)c2)C(=O)N1 [Example 208, 1-(3-fluoro-4-(1-(2-(4-(((5-fluoro-4-oxo-2-(((tetrahydro-2H-pyran-4-yl)thio)methyl)-3,4-dihydroquinazolin-7-yl)oxy)methyl)piperidin-1-yl)ethyl)piperidin-4-yl)phenyl)dihydropyrimidine-2,4(1H,3H)-dione]
O=C1CCC(Nc2ccc(N3CCC(C(=O)N4CCC(N5CCC(COc6cc(F)c7c(=O)[nH]c(COC8CCOCC8)nc7c6)CC5)CC4)CC3)c(F)c2)C(=O)N1 (stereo not drawn) [Example 172, 3-((3-fluoro-4-(4-(4-(((5-fluoro-4-oxo-2-(((tetrahydro-2H-pyran-4-yl)oxy)methyl)-3,4-dihydroquinazolin-7-yl)oxy)methyl)-[1,4′-bipiperidine]-1′-carbonyl)piperidin-1-yl)phenyl)amino)piperidine-2,6-dione]
O=C1CCC(Nc2ccc(N3CCC(N4CCC(CCOc5cc(F)c6c(=O)[nH]c(CSC7CCOCC7)nc6c5)CC4)CC3)c(F)c2)C(=O)N1 (stereo not drawn) [Example 223, 3-((3-fluoro-4-(4-(2-((5-fluoro-4-oxo-2-(((tetrahydro-2H-pyran-4-yl)thio)methyl)-3,4-dihydroquinazolin-7-yl)oxy)ethyl)-[1,4′-bipiperidin]-1′-yl)phenyl)amino)piperidine-2,6-dione]
O=C1CCC(Nc2cc(F)c(N3CCN(CCN4CCC(COc5cc(F)c6c(=O)[nH]c(CSC7CCOCC7)nc6c5)CC4)CC3)c(F)c2)C(=O)N1 (stereo not drawn) [Example 98, 3-((3,5-difluoro-4-(4-(2-(4-(((5-fluoro-4-oxo-2-(((tetrahydro-2H-pyran-4-yl)thio)methyl)-3,4-dihydroquinazolin-7-yl)oxy)methyl)piperidin-1-yl)ethyl)piperazin-1-yl)phenyl)amino)piperidine-2,6-dione formate]
O=C1CCC(Nc2ccc(N3CCN(CCN4CCC(COc5cc(F)c6c(=O)[nH]c(CCC7CCOCC7)nc6c5)CC4)CC3)cc2F)C(=O)N1 (stereo not drawn) [Example 216, 3-((2-fluoro-4-(4-(2-(4-(((5-fluoro-4-oxo-2-(2-(tetrahydro-2H-pyran-4-yl)ethyl)-3,4-dihydroquinazolin-7-yl)oxy)methyl)piperidin-1-yl)ethyl)piperazin-1-yl)phenyl)amino)piperidine-2,6-dione]
O=C1CCC(Nc2ccc(NC(=O)[C@@H]3CCN(CCN4CCC(COc5cc(F)c6c(=O)[nH]c(COC7CCOCC7)nc6c5)CC4)C3)c(F)c2)C(=O)N1 (stereo partly drawn) [Example 200, (3R)-N-(4-((2,6-dioxopiperidin-3-yl)amino)-2-fluorophenyl)-1-(2-(4-(((5-fluoro-4-oxo-2-(((tetrahydro-2H-pyran-4-yl)oxy)methyl)-3,4-dihydroquinazolin-7-yl)oxy)methyl)piperidin-1-yl)ethyl)pyrrolidine-3-carboxamide]
O=C1CCC(Nc2ccc(N3CCC(C(=O)N4CC(N5CCC(COc6cc(F)c7c(=O)[nH]c(CC8CC8)nc7c6)CC5)C4)CC3)c(F)c2)C(=O)N1 (stereo not drawn) [Example 178, 3-((4-(4-(3-(4-(((2-(cyclopropylmethyl)-5-fluoro-4-oxo-3,4-dihydroquinazolin-7-yl)oxy)methyl)piperidin-1-yl)azetidine-1-carbonyl)piperidin-1-yl)-3-fluorophenyl)amino)piperidine-2,6-dione]
O=C1CCC(Nc2ccc(N3CCC(N4CC(N5CCC(COc6cc(F)c7c(=O)[nH]c(COC8CCOCC8)nc7c6)CC5)C4)CC3)c(F)c2)C(=O)N1 (stereo not drawn) [Example 136, 3-((3-fluoro-4-(4-(3-(4-(((5-fluoro-4-oxo-2-(((tetrahydro-2H-pyran-4-yl)oxy)methyl)-3,4-dihydroquinazolin-7-yl)oxy)methyl)piperidin-1-yl)azetidin-1-yl)piperidin-1-yl)phenyl)amino)piperidine-2,6-dione]
Cn1c(=O)n(C2CCC(=O)NC2=O)c2ccc(N3CCN(CCN4CCC(COc5cc(F)c6c(=O)[nH]c(CSC7CCOCC7)nc6c5)CC4)CC3)cc21 (stereo not drawn) [Example 91, 3-(5-(4-(2-(4-(((5-fluoro-4-oxo-2-(((tetrahydro-2H-pyran-4-yl)thio)methyl)-3,4-dihydroquinazolin-7-yl)oxy)methyl)piperidin-1-yl)ethyl)piperazin-1-yl)-3-methyl-2-oxo-2,3-dihydro-1H-benzo[d]imidazol-1-yl)piperidine-2,6-dione]
O=C1CCN(c2ccc(F)c(N3CCC(N4CC(N5CCC(COc6cc(F)c7c(=O)[nH]c(CSC8CCOCC8)nc7c6)CC5)C4)CC3)c2)C(=O)N1 [Example 165, 1-(4-fluoro-3-(4-(3-(4-(((5-fluoro-4-oxo-2-(((tetrahydro-2H-pyran-4-yl)thio)methyl)-3,4-dihydroquinazolin-7-yl)oxy)methyl)piperidin-1-yl)azetidin-1-yl)piperidin-1-yl)phenyl)dihydropyrimidine-2,4(1H,3H)-dione]
O=C1CCC(Nc2ccc(N3CCC(N4CCC(N5CCC(COc6cc(F)c7c(=O)[nH]c(CSC8CCOCC8)nc7c6)CC5)CC4)CC3)c(F)c2)C(=O)N1 (stereo not drawn) [Example 228, 3-((3-fluoro-4-(4-(((5-fluoro-4-oxo-2-(((tetrahydro-2H-pyran-4-yl)thio)methyl)-3,4-dihydroquinazolin-7-yl)oxy)methyl)-[1,4′:1′,4″-terpiperidin]-1″-yl)phenyl)amino)piperidine-2,6-dione diformate]
O=C1CCC(Nc2ccc(N3CCC(N4CCC(COc5cc(F)c6c(=O)[nH]c(CSC7CCOCC7)nc6c5)CC4)CC3)c(F)c2)C(=O)N1 (stereo not drawn) [Example 113]
O=C1CCC(Nc2ccc(-c3ccc(CCN4CCC(COc5cc(F)c6c(=O)[nH]c(CSC7CCOCC7)nc6c5)CC4)nc3)cc2)C(=O)N1 (stereo not drawn) [Example 133]
Cn1nc(N2CCC(=O)NC2=O)c2ccc(N3CCC(COc4cc(F)c5c(=O)[nH]c(COC6CCOCC6)nc5c4)CC3)cc21 [Example 184, 1-(6-(4-(((5-fluoro-4-oxo-2-(((tetrahydro-2H-pyran-4-yl)oxy)methyl)-3,4-dihydroquinazolin-7-yl)oxy)methyl)piperidin-1-yl)-1-methyl-1H-indazol-3-yl)dihydropyrimidine-2,4(1H,3H)-dione]
